Consider 17 molecules from ChEMBL document CHEMBL1127247, “Isoarecolones and arecolones: selective central nicotinic agonists that cross the blood-brain barrier” (Bioorg Med Chem Lett, 1994).

By Ki is commonly meant the dissociation constant of the complex between target and ligand, obtained from inhibition or displacement.

A value given as a limit tells only on which side of the number the result lay.

Experiment [1] deals with Neuronal acetylcholine receptor. Briefly: Binding affinity for Nicotinic acetylcholine receptor site in rat cortex was determined using [3H]MCC as radioligand.
In experiment [2] the target is Muscarinic acetylcholine receptor. Nature of the experiment: Binding affinity for muscarinic receptor site in rat hippocampus was determined using competitive radioligand binding assays employing [3H]OXO-M. The class given is tissue-based.
Experiment [3] can be described thus: Selectivity for nicotinic agonist activity was determined between Ki for [3H]-OXO-M and to that for [3H]MCC. The class given is functional.
For experiment [4], the species on record is Rattus norvegicus. Nature of the experiment: (§1) Effect of compound on accumulation of dopamine metabolite dihydroxyphenyl acetic acid (DOPAC) in nucleus accumbens. The class given is functional, organism-based.
Experiment [5] is filed under the species Rattus norvegicus. Briefly: (§2) Effect of compound on accumulation of dopamine metabolite dihydroxyphenyl acetic acid (DOPAC) in rat striatum. The class given is functional, organism-based.
The species entered for experiment [6] is Rattus norvegicus. Briefly: (§3) Effect of compound on accumulation of homovanillic acid (HVA) in nucleus accumbens. The class given is functional, organism-based.
The species entered for experiment [7] is Rattus norvegicus. Briefly: (§4) Effect of compound on accumulation of homovanillic acid (HVA) in rat striatum. The class given is functional, organism-based.
The species entered for experiment [8] is Rattus norvegicus. The experiment is described as §1. The class given is functional.
For experiment [9], the species on record is Rattus norvegicus. Described as §2. The class given is functional.
The species entered for experiment [10] is Rattus norvegicus. Described as §3. The class given is functional.
Experiment [11] is filed under the species Rattus norvegicus. The description is as §4. The class given is functional.

In the case of `CN1CCC=C(C(=O)c2ccccc2)C1`, the results for the Ki in [1] and in experiment [2] were 178 nM and 2450 nM, respectively. The Selectivity in experiment [3] was 14.

For `CN1CCC=C(C(=O)Cc2ccccc2)C1`, the Ki in [1] was 123 nM; in [2], 1885 nM. Also, the Selectivity in experiment [3] was found to be 15.

`CCCCC(=O)C1=CCN(C)CC1`: the Ki in experiment [1] came out at 149 nM; in experiment [2] it was 4345 nM. Also, the Selectivity in experiment [3] was determined as 29.

Regarding `CN1CC=C(C(=O)Cc2ccccc2)CC1`, the Ki in experiment [1] stood at 946 nM; in experiment [2] it was 3500 nM. In [3], this molecule returned a Selectivity of 4.

`CN1CC=C(C(=O)C(C)(C)C)CC1`: the Ki in [1] came to 56.7 nM; in experiment [2], 6250 nM. In [3], this molecule showed a Selectivity of 110.

`CCCC(=O)C1=CCN(C)CC1`: the Ki in experiment [1] is 67.3 nM; in [2], greater than 5000 nM. In experiment [3], this molecule registered a Selectivity greater than 74.

Turning to `CC(=O)C1=CCCN(C)C1`, the inhibition constant Ki in experiment [1] came out at 32.7 nM; in experiment [2] it was 4380 nM. The Selectivity in experiment [3] is 134.

In the case of `CCC(=O)C1=CCN(C)CC1`, the values for the inhibition constant (Ki) in [1] and in experiment [2] were 25.7 nM and greater than 5000 nM, respectively. This molecule showed a Selectivity in experiment [3] greater than 195.

With `CC#CC(=O)C1=CCN(C)CC1`, the Ki was 22 nM in experiment [1] and 2690 nM in experiment [2]. Besides, the Concentration in the experiment filed under Rattus norvegicus [4] amounted to 1.66 nM/g; in the experiment listed under Rattus norvegicus [5], 1.91 nM/g; in the experiment filed under Rattus norvegicus [6], 0.73 nM/g; in the experiment filed under Rattus norvegicus [7], 1.25 nM/g. Besides, the Control worked out at 120% in the experiment listed under Rattus norvegicus [8], 123% in the experiment listed under Rattus norvegicus [9], 132% in the experiment filed under Rattus norvegicus [10] and 140% in the experiment listed under Rattus norvegicus [11]. Besides, the Selectivity in experiment [3] stood at 122.

As for `CN1CC=C(C(=O)c2ccccc2)CC1`, the values for the Ki in experiment [1] and in [2] were 766 nM and 3750 nM, respectively. For the same molecule, in [3], the Selectivity is 5.

Turning to `CCCC(=O)C1=CCCN(C)C1`, the inhibition constant Ki in experiment [1] is 13.1 nM; in experiment [2], 2730 nM. In experiment [3], the Selectivity is 208.

As to `CC#CC(=O)C1=CCCN(C)C1`, the Ki is 5.8 nM in experiment [1] and 1650 nM in experiment [2]. Also, the Concentration in the experiment listed under Rattus norvegicus [4] came out at 1.79 nM/g; in the experiment listed under Rattus norvegicus [5], 1.8 nM/g; in the experiment listed under Rattus norvegicus [6], 0.88 nM/g; in the experiment listed under Rattus norvegicus [7], 1.21 nM/g. Moreover, the Control is 129% in the experiment listed under Rattus norvegicus [8], 115% in the experiment listed under Rattus norvegicus [9], 159% in the experiment listed under Rattus norvegicus [10] and 135% in the experiment listed under Rattus norvegicus [11]. The molecule also yielded a Selectivity in experiment [3] of 284.

As to `CN1CCC[C@H]1c1cccnc1` [NICOTINE], the Concentration in the experiment listed under Rattus norvegicus [4] is 2 nM/g; in the experiment filed under Rattus norvegicus [5], 2.18 nM/g; in the experiment filed under Rattus norvegicus [6], 0.86 nM/g; in the experiment listed under Rattus norvegicus [7], 134 nM/g. The Control in the experiment listed under Rattus norvegicus [8] stood at 144%; in the experiment listed under Rattus norvegicus [9], 140%; in the experiment listed under Rattus norvegicus [10], 157%; in the experiment listed under Rattus norvegicus [11], 151%.

For `CCCCC(=O)C1=CCCN(C)C1`, the figures for the Ki in [1] and in experiment [2] were 61.3 nM and 1385 nM, respectively. The Selectivity in experiment [3] was determined as 23.

For the molecule `CC(=O)C1=CCN(C)CC1`, the values for the Ki in experiment [1] and in [2] were 48.4 nM and 5425 nM, respectively. In experiment [3], this molecule registered a Selectivity of 112.

Turning to `CCC(=O)C1=CCCN(C)C1` [ARECOLON], the Ki in [1] worked out at 5.8 nM; in experiment [2], 1950 nM. Besides, the Selectivity in [3] is 336.

On to `COC(=O)C1=CCCN(C)C1` [ARECOLINE], for which the Ki in experiment [1] was 224 nM. This lies in the sub-micromolar range.
